# According to PubChem BioAssay (NCI):
#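 Grown in 96-well plates, cells were treated for 48 hours with each compound at five concentrations. Insufficient inhibition: endpoint recorded as highest concentration tested. Here, GI50 denotes the concentration required for 50% inhibition of growth. TGI: total growth inhibition.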
# Key:
# Assay in all cases: NCI-60 cell line screen, 48 h
# [1] = system: UACC-62 melanoma
# [2] = system: HCC-2998 colon
# [3] = system: EKVX NSCLC
# [4] = system: A498 renal
# [5] = system: HOP-92 NSCLC
# [6] = system: NCI/ADR-RES ovarian
# [7] = system: U251 CNS
# [8] = system: NCI-H226 lung
# [9] = system: M14 melanoma
# [10] = system: MALME-3M melanoma
# [11] = system: 786-0 renal
# [12] = system: K-562 leukemia
# [13] = system: SN12C renal
# [14] = system: SW-620 colon
# [15] = system: COLO 205 colon
# [16] = system: DU-145 prostate
# [17] = system: KM12 colon
# [18] = system: TK-10 renal
# [19] = system: RPMI-8226 leukemia
# [20] = system: IGROV1 ovarian
# [21] = system: SF-539 CNS
# [22] = system: HT29 colon
# [23] = system: MDA-MB-231 breast
# [24] = system: SK-MEL-5 melanoma
# [25] = system: OVCAR-5 ovarian
# [26] = system: HCT-116 colon
# [27] = system: MCF7 breast
# [28] = system: SK-MEL-28 melanoma
# [29] = system: T-47D breast
# [30] = system: MDA-MB-435
# [31] = system: SNB-75 CNS
# [32] = system: HOP-62 NSCLC
# [33] = system: SK-OV-3 ovarian
# [34] = system: HS 578T breast
# [35] = system: HCT-15 colon
# [36] = system: PC-3 prostate
# [37] = system: OVCAR-8 ovarian
# [38] = system: UACC-257 melanoma
# [39] = system: SK-MEL-2 melanoma
# [40] = system: NCI-H522 lung
# [41] = system: OVCAR-4 ovarian
# [42] = system: SNB-19 CNS
# [43] = system: SF-268 CNS
# [44] = system: SF-295 CNS
# [45] = system: BT-549 breast
# [46] = system: LOX IMVI melanoma
# [47] = system: A549 NSCLC
# [48] = system: NCI-H460 lung
structure (smiles),measurement,setting,value
C#Cc1nc(/C=C/CCCCCCC(=O)NO)cs1,GI50,[1],3.1 µM
same,TGI,[1],15 µM
same,GI50,[2],11.6 µM
same,TGI,[2],36.9 µM
same,GI50,[3],22.7 µM
same,TGI,[3],> 100 µM
same,GI50,[4],3.7 µM
same,TGI,[4],16.8 µM
same,GI50,[5],1180 nM
same,TGI,[5],2760 nM
same,GI50,[6],2150 nM
same,TGI,[6],13.6 µM
same,GI50,[7],3.47 µM
same,TGI,[7],18.6 µM
same,GI50,[8],13.3 µM
same,TGI,[8],53.6 µM
same,GI50,[9],5.18 µM
same,TGI,[9],61.4 µM
same,GI50,[10],1530 nM
same,TGI,[10],3.12 µM
same,GI50,[11],6.72 µM
same,TGI,[11],47.7 µM
same,GI50,[12],2950 nM
same,TGI,[12],> 100 µM
same,GI50,[13],7.84 µM
same,TGI,[13],> 100 µM
same,GI50,[14],2140 nM
same,TGI,[14],4.9 µM
same,GI50,[15],4.73 µM
same,TGI,[15],18 µM
same,GI50,[16],3.01 µM
same,TGI,[16],> 100 µM
same,GI50,[17],5.32 µM
same,TGI,[17],42.6 µM
same,GI50,[18],2290 nM
same,TGI,[18],16.3 µM
same,GI50,[19],1410 nM
same,TGI,[19],5.21 µM
same,GI50,[20],1630 nM
same,TGI,[20],3.38 µM
same,GI50,[21],1590 nM
same,TGI,[21],3.05 µM
same,GI50,[22],4.26 µM
same,TGI,[22],31.4 µM
same,GI50,[23],2250 nM
same,TGI,[23],5.13 µM
same,GI50,[24],4.81 µM
same,TGI,[24],17.4 µM
same,GI50,[25],3.07 µM
same,TGI,[25],> 100 µM
same,GI50,[26],2700 nM
same,TGI,[26],10.5 µM
same,GI50,[27],5.03 µM
same,TGI,[27],> 100 µM
same,GI50,[28],9.61 µM
same,TGI,[28],94.7 µM
same,GI50,[29],3.08 µM
same,TGI,[29],33.8 µM
same,GI50,[30],5.67 µM
same,TGI,[30],> 100 µM
same,GI50,[31],1740 nM
same,TGI,[31],9.61 µM
same,GI50,[32],5.47 µM
same,TGI,[32],58.7 µM
same,GI50,[33],5.12 µM
same,TGI,[33],28.3 µM
same,GI50,[34],3.59 µM
same,TGI,[34],76.3 µM
same,GI50,[35],7.53 µM
same,TGI,[35],> 100 µM
same,GI50,[36],5.27 µM
same,TGI,[36],> 100 µM
same,GI50,[37],3.45 µM
same,TGI,[37],> 100 µM
same,GI50,[38],3.39 µM
same,TGI,[38],> 100 µM
same,GI50,[39],20.6 µM
same,TGI,[39],85.5 µM
same,GI50,[40],3.05 µM
same,TGI,[40],17.9 µM
same,GI50,[41],2310 nM
same,TGI,[41],6.34 µM
same,GI50,[42],16 µM
same,TGI,[42],> 100 µM
same,GI50,[43],3.89 µM
same,TGI,[43],14.9 µM
same,GI50,[44],5.52 µM
same,TGI,[44],19.3 µM
same,GI50,[45],4.05 µM
same,TGI,[45],49.5 µM
same,GI50,[46],185 nM
same,TGI,[46],352 nM
same,GI50,[47],6.23 µM
same,TGI,[47],> 100 µM
same,GI50,[48],4.16 µM
same,TGI,[48],> 100 µM
